Test results reported in ChEMBL document CHEMBL1127167, “Synthesis and in vitro acetylcholinesterase inhibitory activity of some 1-substituted analogues of velnacrine” (Bioorg Med Chem Lett, 1993).

Each molecule was assayed against T1, Acetylcholinesterase (Rattus norvegicus, UniProt P37136) (assay: Inhibition of acetylcholinesterase from rat striatal tissue).
T1 sequence (P37136 whole entry): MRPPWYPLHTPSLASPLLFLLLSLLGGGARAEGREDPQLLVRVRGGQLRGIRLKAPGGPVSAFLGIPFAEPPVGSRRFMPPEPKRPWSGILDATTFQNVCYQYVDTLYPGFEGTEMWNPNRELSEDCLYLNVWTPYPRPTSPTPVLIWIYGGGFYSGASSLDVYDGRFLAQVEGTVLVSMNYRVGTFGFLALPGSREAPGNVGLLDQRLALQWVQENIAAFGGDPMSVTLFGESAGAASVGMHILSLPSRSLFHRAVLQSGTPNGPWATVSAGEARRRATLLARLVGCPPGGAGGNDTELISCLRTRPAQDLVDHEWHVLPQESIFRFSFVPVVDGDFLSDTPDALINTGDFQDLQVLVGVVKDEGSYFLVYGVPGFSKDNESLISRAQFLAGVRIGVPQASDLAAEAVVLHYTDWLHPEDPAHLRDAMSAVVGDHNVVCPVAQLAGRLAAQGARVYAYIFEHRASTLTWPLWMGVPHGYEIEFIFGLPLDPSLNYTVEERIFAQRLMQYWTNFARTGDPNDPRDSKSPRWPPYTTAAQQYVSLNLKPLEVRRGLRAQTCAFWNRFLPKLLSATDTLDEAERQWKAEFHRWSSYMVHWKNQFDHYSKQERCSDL
Format: tissue-based, Striatum

Structure (SMILES) | IC50 [µM]
Nc1c2c(nc3ccccc13)CCCC2Nn1cccc1 (stereo unspecified) | 8.16
Nc1c2c(nc3ccccc13)CCCC2c1cccs1 (stereo unspecified) | 0.49
[N-]=[N+]=NC1CCCc2nc3ccccc3c(N)c21 (stereo unspecified) | 11.8
CCNC1CCCc2nc3ccccc3c(N)c21 (stereo unspecified) | 4.79
CCOC1CCCc2nc3ccccc3c(N)c21 (stereo unspecified) | 0.298
Nc1c2c(nc3ccccc13)CCCC2N1CCN(c2ccccc2)CC1 (stereo unspecified) | > 100
Nc1c2c(nc3ccccc13)CCCC2N (stereo unspecified) | 8.59
CCCCOC1CCCc2nc3ccccc3c(N)c21 (stereo unspecified) | 1.9
Nc1c2c(nc3ccccc13)CCCC2N1CCOCC1 (stereo unspecified) | > 100
COc1ccc(CNC2CCCc3nc4ccccc4c(N)c32)cc1OC (stereo unspecified) | 38.4
Nc1c2c(nc3ccccc13)CCCC2N1CCC(c2ccccc2)CC1 (stereo unspecified) | > 100
CCCNC1CCCc2nc3ccccc3c(N)c21 (stereo unspecified) | 12.5
Nc1c2c(nc3ccccc13)CCCC2NCCc1ccccc1 (stereo unspecified) | 18.6
CC(=O)NC1CCCc2nc3ccccc3c(N)c21 (stereo unspecified) | 64.9
CCCCNC1CCCc2nc3ccccc3c(N)c21 (stereo unspecified) | 48.8
Nc1c2c(nc3ccccc13)CCCC2N1CCCC1 (stereo unspecified) | 18
c1ccc(C2=NC3CCCc4nc5ccccc5c(c43)N2)cc1 (stereo unspecified) | > 100
COc1ccc(C2CCCc3nc4ccccc4c(N)c32)c(OC)c1 (stereo unspecified) | 4.82
CC1=NC2CCCc3nc4ccccc4c(c32)N1 (stereo unspecified) | > 100
CN1CCN(C2CCCc3nc4ccccc4c(N)c32)CC1 (stereo unspecified) | > 100
Nc1c2c(nc3ccccc13)CCCC2NCc1ccccc1 (stereo unspecified) | 20.1
CCCOC1CCCc2nc3ccccc3c(N)c21 (stereo unspecified) | 0.193
Nc1c2c(nc3ccccc13)CCCC2N1CCCCC1 (stereo unspecified) | 8.4
CCCCCC(=O)NC1CCCc2nc3ccccc3c(N)c21 (stereo unspecified) | 51.8
COC1CCCc2nc3ccccc3c(N)c21 (stereo unspecified) | 4.74
Nc1c2c(nc3ccccc13)CCCC2O (stereo unspecified) [VELNACRINE] | 3.64
